Laboratory results from US20240360104A1, “TRANSCRIPTIONAL ENHANCED ASSOCIATED DOMAIN (TEAD) TRANSCRIPTION FACTOR INHIBITORS AND USES THEREOF” (Dana-Farber Cancer Institute, Inc., priority 2021, published 2024).

System: NCI-H226 cells
Assay: Antiproliferation assay on NCI-H226 cells (CellTiter-Glo, 5-day treatment)
Assay type: cell-based
Conditions: Homo sapiens, 120 h, 200 cells/well, 384 plate
Protocol: Example 1. Antiproliferation Assay on NCI-H226 Cells (200 Cells/Well, 384 Plate, 5-Day Treatment)
The compounds of the disclosure were tested for their ability in an antiproliferation assay using NCI-H226 cells (FIG. 6 and FIG. 7). The following table summarizes the IC50 values calculated from the graph of the percent inhibition versus the log of the concentration of representative compounds of the disclosure.
For 2D adherent cell viability experiment, the cells were seeded at 384-well plate (Corning, no. 3570) at the density of 200 cells/well (FIGS. 1-7). The next day, compounds were added using Janus workstation (PerkinElmer). After 5 days treatment, the cell viability was measured by CellTiter-Glo kit (Promega, no. G7570) as the manufacturer recommended.

Going from `C=CC(=O)N1C[C@@H](OCc2ccc(C(F)(F)F)cc2)[C@H](c2ccc(S(C)(=O)=O)cc2)C1` (relative stereo) [VII-1, 1-(trans-3-(4-(methylsulfonyl)phenyl)-4-(4-(trifluoromethyl)benzyloxy)pyrrolidin-1-yl)prop-2-en-1-one] to `C=CC(=O)N1C[C@@H](OCc2ccc(C(F)(F)F)cc2)[C@H](c2cccc(S(C)(=O)=O)c2)C1` [VII-2], the IC50 rises from 168 nM to 256 nM (1.5-fold). The first is the more potent here.

Compared with `C=CC(=O)N1C[C@@H](n2cc(-c3ccc(N)nc3)nn2)[C@H](OCc2ccc(C(F)(F)F)cc2)C1` (relative stereo) [II-6, 1-(trans-3-(4-(6-aminopyridin-3-yl)-1H-1,2,3-triazol-1-yl)-4-(4-(trifluoromethyl)benzyloxy)pyrrolidin-1-yl)prop-2-en-1-one], `C=CC(=O)N1C[C@@H](n2cc(-c3cncc(N)c3)nn2)[C@H](OCc2ccc(C(F)(F)F)cc2)C1` (relative stereo) [II-5, 1-(trans-3-(4-(5-aminopyridin-3-yl)-1H-1,2,3-triazol-1-yl)-4-(4-(trifluoromethyl)benzyloxy)pyrrolidin-1-yl)prop-2-en-1-one] is 1.5-fold higher in IC50: 112 nM for the first, 172 nM for the second. The first is the more potent here.

`C=CC(=O)N1C[C@@H](NS(=O)(=O)c2cccc(C#N)c2)[C@H](OCc2ccc(C(F)(F)F)cc2)C1` (relative stereo) [Compound V-6, N-(trans-1-acryloyl-4-(4-(trifluoromethyl)benzyloxy)pyrrolidin-3-yl)-3-cyanobenzenesulfonamide] and `C=CC(=O)N1C[C@@H](NS(=O)(=O)c2cccnc2)[C@H](OCc2ccc(C(F)(F)F)cc2)C1` [Compound V-1] are within 1.5-fold of each other in IC50: 543 nM for the first, 380 nM for the second.

First: C=CC(=O)N1C[C@@H](n2ccnn2)[C@H](OCc2ccc(C(F)(F)F)cc2)C1 [II-8]
Second: C=CC(=O)N1C[C@@H](n2cc(C(N)=O)nn2)[C@H](OCc2ccc(C(F)(F)F)cc2)C1 (relative stereo) [II-1, 1-(trans-1-acryloyl-4-(4-(trifluoromethyl)benzyloxy)pyrrolidin-3-yl)-1H-1,2,3-triazole-4-carboxamide]
The IC50 of the first is 7.4-fold lower: 78 nM for the first, 580 nM for the second. The first is the more potent here.

First: C=CC(=O)N1C[C@@H](n2cc(C3CCN(C)CC3)nn2)[C@H](OCc2ccc(C(F)(F)F)cc2)C1 (relative stereo) [II-19, 1-(trans-3-(4-(1-methylpiperidin-4-yl)-1H-1,2,3-triazol-1-yl)-4-(4-(trifluoromethyl)benzyloxy)pyrrolidin-1-yl)prop-2-en-1-one]
Second: C=CC(=O)N1C[C@@H](n2cc(C(=O)NC)nn2)[C@H](OCc2ccc(C(F)(F)F)cc2)C1 (relative stereo) [II-2, 1-(trans-1-acryloyl-4-(4-(trifluoromethyl)benzyloxy)pyrrolidin-3-yl)-N-methyl-1H-1,2,3-triazole-4-carboxamide]
The IC50 of the first is 2.4-fold lower: 193 nM for the first, 461 nM for the second. The first is the more potent here.

Going from `C=CC(=O)N1C[C@@H](n2nc(-c3cnn(C)c3)ccc2=O)[C@H](OCc2ccc(C(F)(F)F)cc2)C1` (relative stereo) [VI-2, 2-(trans-1-acryloyl-4-(4-(trifluoromethyl)benzyloxy)pyrrolidin-3-yl)-6-(1-methyl-1H-pyrazol-4-yl)pyridazin-3(2H)-one] to `C=CC(=O)N1C[C@@H](n2ncc(-c3cnn(C)c3)cc2=O)[C@H](OCc2ccc(C(F)(F)F)cc2)C1` (relative stereo) [VI-3, 2-(trans-1-acryloyl-4-((4-(trifluoromethyl)benzyl)oxy)pyrrolidin-3-yl)-5-(1-methyl-1H-pyrazol-4-yl)pyridazin-3(2H)-one], the IC50 falls from 99 nM to 41 nM (2.4-fold). The second is the more potent here.

Going from `C=CC(=O)N1C[C@@H](NS(=O)(=O)c2c(C)noc2C)[C@H](OCc2ccc(C(F)(F)F)cc2)C1` (relative stereo) [Compound V-5, N-(trans-1-acryloyl-4-(4-(trifluoromethyl)benzyloxy)pyrrolidin-3-yl)-3,5-dimethylisoxazole-4-sulfonamide] to `C=CC(=O)N1C[C@@H](Nc2ccncn2)[C@H](OCc2ccc(C(F)(F)F)cc2)C1` (relative stereo) [VII-11, 1-(trans-3-(pyrimidin-4-ylamino)-4-(4-(trifluoromethyl)benzyloxy)pyrrolidin-1-yl)prop-2-en-1-one], the IC50 falls from 954 nM to 189 nM (5-fold). The second is the more potent here.

First: C=CC(=O)N1C[C@@H](n2ccc(C(=O)NC)n2)[C@H](OCc2ccc(C(F)(F)F)cc2)C1 (relative stereo) [IV-5, 1-(trans-1-acryloyl-4-(4-(trifluoromethyl)benzyloxy)pyrrolidin-3-yl)-N-methyl-1H-pyrazole-3-carboxamide]
Second: C=CC(=O)N1C[C@@H](Nc2ncccn2)[C@H](OCc2ccc(C(F)(F)F)cc2)C1 (relative stereo) [Compound I-1, 1-(trans-3-(pyrimidin-2-ylamino)-4-(4-(trifluoromethyl)benzyloxy)pyrrolidin-1-yl)prop-2-en-1-one]
The IC50 of the first is 14-fold higher: 490 nM for the first, 36 nM for the second. The second is the more potent here.

Going from `C=C(F)C(=O)N1C[C@@H](Nc2ncccn2)[C@H](OCc2ccc(C(F)(F)F)cc2)C1` [Compound I-9, 2-fluoro-1-((3R, 4R)-3-(pyrimidin-2-ylamino)-4-(4-(trifluoromethyl)benzyloxy)pyrrolidin-1-yl)prop-2-en-1-one] to `C=CC(=O)N1C[C@@H](n2cc(-c3cccc(C#N)c3)nn2)[C@H](OCc2ccc(C(F)(F)F)cc2)C1` (relative stereo) [II-7, 3-(1-(trans-1-acryloyl-4-(4-(trifluoromethyl)benzyloxy)pyrrolidin-3-yl)-1H-1,2,3-triazol-4-yl)benzonitrile], the IC50 rises from 23 nM to 377 nM (16-fold). The first is the more potent here.

In the case of `C#Cc1ccc(CO[C@@H]2CN(C(=O)C=C)C[C@H]2n2cc(-c3cccnc3)nn2)cc1` [III-6, 1-((3R,4R)-3-(4-ethynylbenzyloxy)-4-(4-(pyridin-3-yl)-1H-1,2,3-triazol-1-yl)pyrrolidin-1-yl)prop-2-en-1-one], the IC50 is reported as 256 nM.

System: H2052 cells
Assay: Antiproliferation assay using H2052 cells
Assay type: cell-based
Conditions: Homo sapiens, NCI-H2052; H2052 cells (FIG. 2)

For `C=CC(=O)N1C[C@@H](n2ccnn2)[C@H](OCc2ccc(C(F)(F)F)cc2)C1` [II-8], the IC50 was 142 nM.
